In patent US20230130134A1, “METHOD OF TREATING VIRAL INFECTIONS WITH HEXOSE TYPE MONOSACCHARIDES AND ANALOGS THEREOF” (Board of Regents, The University of Texas System, priority 2020, published 2023):

Assay: Tissue distribution of tritium-labeled WP1122 and 2-DG in lungs after intravenous administration (liquid scintillation counting)
Format: in vivo
Details: male Sprague-Dawley rats; for Detection of 2-DG and metabolites in lungs: i.v., 15, 30, 60 min, 6 and 24 hours post-dose
Experimental: Experimental procedures. The pharmacokinetic and tissue organ distribution of WP1122 and 2-DG labeled with tritium was analyzed in male Sprague-Dawley rats. Animals (n=3 per timepoint) were dosed intravenously with 2-DG or WP1122 at equimolar dose 0.2 and 0.13 g/kg for WP1122 and 2-DG respectively. The animals were euthanized at 15, 30, 60 min and 6- and 24-hours post-dose. The organs were extracted, rinsed with PBS and radioactivity was measured using Liquid Scintillation Counting (LCS).

Compound	Detection of 2-DG and metabolites in lungs	Presence of metabolites in lungs compared with 2-DG administration (i.v., all time points including 24 hours after administration)	Highest concentration of radiolabeled compounds in lungs relative to radioactivity from 2-DG administration (i.v., equimolar 0.2 g/kg WP1122 vs 0.13 g/kg 2-DG, 15 min post injection)
OC[C@H]1OC(O)C[C@@H](O)[C@@H]1O (stereo partly drawn) [Example 2-DG, (4R,5S,6R)-6-(hydroxymethyl)tetrahydro-2H-pyran-2,4,5-triol, reference compound]	detected in lungs in all tested time-points		
CC(=O)OC[C@H]1OC(O)C[C@@H](OC(C)=O)[C@@H]1O (stereo partly drawn) [WP1122, ((2R,3S,4R)-4-acetoxy-3,6-dihydroxytetrahydro-2H-pyran-2-yl)methyl acetate]	detected in lungs in all tested time-points	Increased presence of metabolites	nearly three times higher
